# Data published in article PMC6152024 (Molecules : A Journal of Synthetic Chemistry and Natural …, 2017).
# Legend:
# Type in all cases: in vitro ADME
# CYP3A [1] = target: T1, CYP3A (Homo sapiens, UniProt P08684); assay: KI and kinact assay (CYP3A inactivation) in HLMs; set-up: tissue Meilun Biotechnology Co., Ltd. (Dalian, China) lot No. M0202A; host or cells: pooled (mixed) male human liver microsomes; details: preincubation 0-30 min with NADPH-gs, 100 µM Tes
# Method: The following steps were similar as described in the IC50 shift assays. […] All the incubations were performed in triplicate.
# Pharmacokinetic profiles of CTX and DCCTX were estimated by one-compartmental model using the DAS 2.0 software ([…], Medical College of Wannan, Anhui, China). Data were expressed as mean ± SD. Comparisons between two groups were performed using one-way ANOVA followed by LSD test in the condition of variance homogeneity or Dunnett T3 test in the case of variance heterogeneity. The differences were considered to be statistically significant at * p < 0.05 and ** p < 0.01. IC50 values of Gom A were determined by nonlinear regression analysis using GraphPad Prism 5.01 software (GraphPad Software Inc., San Diego, CA, USA). The mode of inhibition was verified by Lineweaver-Burk plots of the enzyme kinetic data, and the KI value was determined by linear regression analysis with GraphPad Prism 5.01 (GraphPad Software Inc.). The initial inactivation rate constant (kobs, min^−1) was estimated from the initial slope of the linear regression line at each concentration of Gom A. Then the values of kobs were plotted versus Gom A concentration, and the maximal inactivation rate constant kinact, along with the concentration of inactivator (at which the rate of the inactivation is half maiximal) KI values, were determined using Equation (1). […]
# CYP3A [2] = target: T1, CYP3A; assay: IC50 shift assay (time- and NADPH-dependent inhibition) in HLMs
# Method: (§1) A NADPH regenerating system (NADPH-gs, containing 10 mM glucose-6-phosphate, 5 mM magnesium chloride, 1 U/mL glucose-6-phosphate dehydrogenase and 1 mM NADP+) was constructed. The metabolite of Tes, 6OH-Tes, was assayed by UHPLC-MS method (I) for CYP3A activity assessment.
# In a final volume of 100 µL, Gom A at different concentrations (0, 0.08, 0.31, 0.63, 2.5, 10 and 40 µM) was preincubated with 10 × HLMs (5 mg/mL) at 37 °C with NADPH-gs in PBS (0.1 M). After 30 min, the incubation mixture was diluted 10 folds using PBS (0.1 M). Then 100 µL of the diluted mixture was added into a secondary incubation containing NADPH-gs and 25 µM Tes. The final volume was 200 µL. After 10 min incubation, the reaction was terminated by the addition of 200 µL ice-cold acetonitrile containing 18 ng/mL phenacetin (IS-I). […]
# (§2) Pharmacokinetic profiles of CTX and DCCTX were estimated by one-compartmental model using the DAS 2.0 software ([…], Medical College of Wannan, Anhui, China). Data were expressed as mean ± SD. […] IC50 values of Gom A were determined by nonlinear regression analysis using GraphPad Prism 5.01 software (GraphPad Software Inc., San Diego, CA, USA). The mode of inhibition was verified by Lineweaver-Burk plots of the enzyme kinetic data, and the KI value was determined by linear regression analysis with GraphPad Prism 5.01 (GraphPad Software Inc.). […]
# CYP3A [3] = target: T1, CYP3A; assay: Reversible CYP3A inhibition, testosterone 6β-hydroxylation in human liver microsomes; details: HLMs, Lineweaver-Burk plot
# Method: as §1
# The CYP3A inhibition by Gom A was preliminarily evaluated. […] After a 5 min warm up period, reactions were initiated with addition of NADPH-gs. Incubations were conducted at 37 °C for 10 min and then terminated by the addition of 200 µL ice-cold acetonitrile containing 18 ng/mL phenacetin (IS-I). […] Incubations were processed and terminated as described earlier.
# as §2, with “SD. Comparisons between two groups were performed using one-way ANOVA followed by LSD test in the condition of variance homogeneity or Dunnett T3 test in the case of variance heterogeneity.” for “SD.”
# T1 sequence (P08684 2-503): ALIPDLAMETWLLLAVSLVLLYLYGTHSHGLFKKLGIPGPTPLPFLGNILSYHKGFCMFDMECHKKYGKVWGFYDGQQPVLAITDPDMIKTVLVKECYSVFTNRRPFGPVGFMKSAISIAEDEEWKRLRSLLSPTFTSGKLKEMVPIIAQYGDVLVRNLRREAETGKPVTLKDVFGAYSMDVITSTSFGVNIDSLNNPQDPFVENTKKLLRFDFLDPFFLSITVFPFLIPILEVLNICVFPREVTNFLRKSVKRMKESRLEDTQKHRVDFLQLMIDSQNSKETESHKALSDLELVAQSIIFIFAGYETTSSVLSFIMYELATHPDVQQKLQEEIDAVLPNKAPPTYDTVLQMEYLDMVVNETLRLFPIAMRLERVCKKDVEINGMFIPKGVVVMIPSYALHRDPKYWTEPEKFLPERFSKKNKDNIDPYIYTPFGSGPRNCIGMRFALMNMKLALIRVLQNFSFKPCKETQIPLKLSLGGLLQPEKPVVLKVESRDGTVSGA
substance,measurement,setting,value
Gomisin A [Gom A],kinact,CYP3A [1],1.96 min⁻¹
same,NADPH dependence of CYP3A inhibition,"CYP3A [2]; Gom A 1 µM preincubated 30 min with vs without NADPH-gs, data not shown",more potent when Gom A was preincubated with NADPH
same,shift in IC50,CYP3A [2]; with vs without 30 min preincubation,1.8 fold
same,mode of inhibition,CYP3A [3],competitive inhibitor
